The kinase profiling compilation of Christmann-Franck et al. (2016)

Assays:
Experiment in all cases: radiometric filter-binding kinase assay, Kinase HotSpot
Conditions in all cases: compound 0.5 µM; ATP 10 µM
SIK2 (human) = SIK2 (human) (UniProt Q9H0K1)
ADRBK2 (human) = ADRBK2 (human) (UniProt P35626)
PHKG2 (human) = PHKG2 (human) (UniProt P15735)
TLK2 (human) = TLK2 (human) (UniProt Q86UE8)
DYRK3 (human) = DYRK3 (human) (UniProt O43781)
TNK2 (human) = TNK2 (human) (UniProt Q07912)
EPHA6 (human) = EPHA6 (human) (UniProt Q9UF33)
CHEK1 (human) = CHEK1 (human) (UniProt O14757)
CDK4 CCND1 (human) = CDK4 CCND1 (human) (UniProt P24385+P11802)
DSTYK (human) = DSTYK (human) (UniProt Q6XUX3)
[1] = tested on: FLT4 (human), P35916 [Q890H]
ALK (human) = ALK (human) (UniProt Q9UM73)
DCLK2 (human) = DCLK2 (human) (UniProt Q8N568)
GSG2 (human) = GSG2 (human) (UniProt Q8TF76)
MARK1 (human) = MARK1 (human) (UniProt Q9P0L2)
PBK (human) = PBK (human) (UniProt Q96KB5)
CAMK2D (human) = CAMK2D (human) (UniProt Q13557)
[2] = tested on: MKNK1 (human), Q9BUB5 [T385D; 165-205 del]
IRAK1 (human) = IRAK1 (human) (UniProt P51617)
WNK2 (human) = WNK2 (human) (UniProt Q9Y3S1)
AKT2 (human) = AKT2 (human) (UniProt P31751)
STK4 (human) = STK4 (human) (UniProt Q13043)
FLT3 (human) = FLT3 (human) (UniProt P36888)
WEE1 (human) = WEE1 (human) (UniProt P30291)
DAPK1 (human) = DAPK1 (human) (UniProt P53355)
CDK4 CCND3 (human) = CDK4 CCND3 (human) (UniProt P30281+P11802)
PDGFRA (human) = PDGFRA (human) (UniProt P16234)
ROCK1 (human) = ROCK1 (human) (UniProt Q13464)
STK38 (human) = STK38 (human) (UniProt Q15208)
CDK7 CCNH MNAT1 (human) = CDK7 CCNH MNAT1 (human) (UniProt P50613+P51948+P51946)
BRSK2 (human) = BRSK2 (human) (UniProt Q8IWQ3)
NLK (human) = NLK (human) (UniProt Q9UBE8)
MATK (human) = MATK (human) (UniProt P42679)
MYO3B (human) = MYO3B (human) (UniProt Q8WXR4)
NUAK2 (human) = NUAK2 (human) (UniProt Q9H093)
SRPK2 (human) = SRPK2 (human) (UniProt P78362)
MAPK1 (human) = MAPK1 (human) (UniProt P28482)
RPS6KA3 KD1 KD2 (human) = RPS6KA3 KD1 KD2 (human) (UniProt P51812)
ULK3 (human) = ULK3 (human) (UniProt Q6PHR2)
OXSR1 (human) = OXSR1 (human) (UniProt O95747)
NEK3 (human) = NEK3 (human) (UniProt P51956)
TTK (human) = TTK (human) (UniProt P33981)

Chain of MAPK1 (human) (P28482 whole entry, looked up): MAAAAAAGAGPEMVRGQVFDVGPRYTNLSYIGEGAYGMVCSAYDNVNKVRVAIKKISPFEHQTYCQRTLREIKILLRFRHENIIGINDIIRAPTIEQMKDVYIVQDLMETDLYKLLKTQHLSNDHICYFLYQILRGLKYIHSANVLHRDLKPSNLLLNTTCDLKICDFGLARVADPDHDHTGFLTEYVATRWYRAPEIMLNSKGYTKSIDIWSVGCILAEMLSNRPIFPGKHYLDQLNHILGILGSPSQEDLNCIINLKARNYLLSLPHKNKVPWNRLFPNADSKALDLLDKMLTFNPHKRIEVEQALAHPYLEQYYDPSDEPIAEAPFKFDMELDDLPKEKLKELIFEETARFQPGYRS
Chain of TNK2 (human) (Q07912 whole entry, looked up): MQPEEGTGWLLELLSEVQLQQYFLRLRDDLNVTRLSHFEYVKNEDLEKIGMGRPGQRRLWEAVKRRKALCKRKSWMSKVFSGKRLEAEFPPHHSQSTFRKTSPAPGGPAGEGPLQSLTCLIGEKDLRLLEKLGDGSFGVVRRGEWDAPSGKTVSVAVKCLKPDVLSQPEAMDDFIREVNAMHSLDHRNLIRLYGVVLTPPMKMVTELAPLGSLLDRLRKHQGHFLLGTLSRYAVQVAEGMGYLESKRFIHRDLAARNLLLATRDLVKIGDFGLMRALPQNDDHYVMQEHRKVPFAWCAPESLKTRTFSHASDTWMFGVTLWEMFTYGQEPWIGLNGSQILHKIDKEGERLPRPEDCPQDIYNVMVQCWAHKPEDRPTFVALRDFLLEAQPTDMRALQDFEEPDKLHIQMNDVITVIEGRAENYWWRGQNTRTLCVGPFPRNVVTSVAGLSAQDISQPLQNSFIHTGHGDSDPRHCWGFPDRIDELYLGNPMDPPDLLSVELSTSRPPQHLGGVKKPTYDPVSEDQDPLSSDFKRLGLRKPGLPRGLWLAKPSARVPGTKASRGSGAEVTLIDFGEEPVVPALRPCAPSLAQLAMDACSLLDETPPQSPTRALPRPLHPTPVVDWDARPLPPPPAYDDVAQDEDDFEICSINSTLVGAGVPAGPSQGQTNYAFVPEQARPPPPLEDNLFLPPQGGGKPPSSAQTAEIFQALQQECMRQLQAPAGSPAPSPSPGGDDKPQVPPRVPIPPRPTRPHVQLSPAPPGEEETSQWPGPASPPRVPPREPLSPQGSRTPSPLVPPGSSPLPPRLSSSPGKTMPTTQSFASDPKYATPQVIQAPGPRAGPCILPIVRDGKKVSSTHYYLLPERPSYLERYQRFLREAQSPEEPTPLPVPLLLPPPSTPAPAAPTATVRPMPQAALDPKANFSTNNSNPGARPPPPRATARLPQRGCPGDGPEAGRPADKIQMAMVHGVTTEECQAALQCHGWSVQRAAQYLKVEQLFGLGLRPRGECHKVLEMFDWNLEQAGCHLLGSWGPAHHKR
Chain of NEK3 (human) (P51956 whole entry, looked up): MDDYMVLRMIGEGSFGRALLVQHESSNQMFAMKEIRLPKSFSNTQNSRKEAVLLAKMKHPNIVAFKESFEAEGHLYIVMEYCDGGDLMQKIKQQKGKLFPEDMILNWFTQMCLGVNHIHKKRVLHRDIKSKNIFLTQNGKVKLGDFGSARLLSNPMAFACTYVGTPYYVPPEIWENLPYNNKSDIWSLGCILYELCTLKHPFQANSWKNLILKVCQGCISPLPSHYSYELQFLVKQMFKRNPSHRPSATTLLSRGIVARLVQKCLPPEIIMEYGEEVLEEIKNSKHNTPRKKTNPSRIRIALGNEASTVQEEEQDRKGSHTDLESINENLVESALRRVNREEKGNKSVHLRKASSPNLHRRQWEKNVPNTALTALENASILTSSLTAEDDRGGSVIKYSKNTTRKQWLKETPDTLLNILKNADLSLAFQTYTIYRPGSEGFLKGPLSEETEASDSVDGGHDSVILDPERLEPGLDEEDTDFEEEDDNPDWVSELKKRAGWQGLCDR
Chain of DSTYK (human) (Q6XUX3 whole entry, looked up): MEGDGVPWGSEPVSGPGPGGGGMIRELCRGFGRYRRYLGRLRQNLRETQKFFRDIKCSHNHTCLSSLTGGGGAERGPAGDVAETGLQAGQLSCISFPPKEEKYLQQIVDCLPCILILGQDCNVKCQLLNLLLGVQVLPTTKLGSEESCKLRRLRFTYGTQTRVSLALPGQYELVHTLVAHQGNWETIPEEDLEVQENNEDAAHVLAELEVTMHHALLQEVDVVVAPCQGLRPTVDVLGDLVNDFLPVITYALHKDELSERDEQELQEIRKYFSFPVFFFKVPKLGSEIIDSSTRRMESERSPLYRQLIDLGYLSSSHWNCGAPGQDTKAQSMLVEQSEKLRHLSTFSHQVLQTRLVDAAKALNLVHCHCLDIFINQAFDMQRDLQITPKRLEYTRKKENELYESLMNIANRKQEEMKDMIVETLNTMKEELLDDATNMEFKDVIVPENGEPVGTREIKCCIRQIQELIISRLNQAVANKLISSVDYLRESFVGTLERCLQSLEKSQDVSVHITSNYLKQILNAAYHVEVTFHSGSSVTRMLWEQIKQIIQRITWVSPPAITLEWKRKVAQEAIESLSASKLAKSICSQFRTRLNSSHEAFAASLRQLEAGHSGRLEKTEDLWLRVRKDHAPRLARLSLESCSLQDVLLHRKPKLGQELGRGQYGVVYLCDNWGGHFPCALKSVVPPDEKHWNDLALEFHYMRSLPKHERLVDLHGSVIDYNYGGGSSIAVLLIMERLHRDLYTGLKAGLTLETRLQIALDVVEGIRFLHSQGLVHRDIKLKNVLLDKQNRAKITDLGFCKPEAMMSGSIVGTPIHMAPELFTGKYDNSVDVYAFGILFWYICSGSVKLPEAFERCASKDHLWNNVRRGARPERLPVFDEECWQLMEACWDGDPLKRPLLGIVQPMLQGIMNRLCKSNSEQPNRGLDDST
Chain of PBK (human) (Q96KB5 whole entry, looked up): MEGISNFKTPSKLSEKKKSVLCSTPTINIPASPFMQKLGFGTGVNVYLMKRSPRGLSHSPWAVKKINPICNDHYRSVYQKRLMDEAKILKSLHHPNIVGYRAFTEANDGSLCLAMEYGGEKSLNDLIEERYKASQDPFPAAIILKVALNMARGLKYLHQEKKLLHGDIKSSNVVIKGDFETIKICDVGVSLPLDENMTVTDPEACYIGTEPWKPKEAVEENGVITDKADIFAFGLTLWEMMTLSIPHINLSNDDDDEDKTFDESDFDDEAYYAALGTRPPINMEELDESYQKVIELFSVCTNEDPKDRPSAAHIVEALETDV
Chain of TLK2 (human) (Q86UE8 whole entry, looked up): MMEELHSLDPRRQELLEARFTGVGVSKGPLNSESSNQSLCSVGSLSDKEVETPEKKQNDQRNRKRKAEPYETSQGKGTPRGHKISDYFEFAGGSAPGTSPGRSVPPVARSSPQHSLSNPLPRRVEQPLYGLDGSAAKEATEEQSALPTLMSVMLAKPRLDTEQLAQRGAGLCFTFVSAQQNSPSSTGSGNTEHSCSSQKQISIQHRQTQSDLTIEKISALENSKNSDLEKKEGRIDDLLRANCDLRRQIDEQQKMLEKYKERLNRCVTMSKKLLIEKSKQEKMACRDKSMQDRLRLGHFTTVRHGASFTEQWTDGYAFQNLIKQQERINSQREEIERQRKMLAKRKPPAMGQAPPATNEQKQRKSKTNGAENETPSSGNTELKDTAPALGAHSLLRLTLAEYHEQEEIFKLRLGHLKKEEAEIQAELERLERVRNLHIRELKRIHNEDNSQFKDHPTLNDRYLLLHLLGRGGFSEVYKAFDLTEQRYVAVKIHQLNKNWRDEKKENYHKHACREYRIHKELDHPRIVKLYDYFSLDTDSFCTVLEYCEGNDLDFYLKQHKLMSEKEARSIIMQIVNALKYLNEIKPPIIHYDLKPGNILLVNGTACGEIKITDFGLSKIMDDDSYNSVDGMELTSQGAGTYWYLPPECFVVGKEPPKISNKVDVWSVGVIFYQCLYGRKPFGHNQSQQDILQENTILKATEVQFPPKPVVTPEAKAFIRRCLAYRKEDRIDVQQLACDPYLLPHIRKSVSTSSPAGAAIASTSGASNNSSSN
Chain of ULK3 (human) (Q6PHR2 whole entry, looked up): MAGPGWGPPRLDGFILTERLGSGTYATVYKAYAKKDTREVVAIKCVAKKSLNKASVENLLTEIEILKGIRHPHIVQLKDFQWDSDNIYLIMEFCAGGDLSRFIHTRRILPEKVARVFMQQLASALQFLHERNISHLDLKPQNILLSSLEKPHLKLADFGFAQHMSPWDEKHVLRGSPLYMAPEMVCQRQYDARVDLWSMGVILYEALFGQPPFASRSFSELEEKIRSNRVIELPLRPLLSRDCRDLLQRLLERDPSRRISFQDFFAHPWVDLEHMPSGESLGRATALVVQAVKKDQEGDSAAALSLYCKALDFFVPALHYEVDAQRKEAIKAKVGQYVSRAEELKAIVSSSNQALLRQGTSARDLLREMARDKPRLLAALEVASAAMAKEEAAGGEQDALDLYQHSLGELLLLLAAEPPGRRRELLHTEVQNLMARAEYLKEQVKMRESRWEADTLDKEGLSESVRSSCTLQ
Chain of NUAK2 (human) (Q9H093 whole entry, looked up): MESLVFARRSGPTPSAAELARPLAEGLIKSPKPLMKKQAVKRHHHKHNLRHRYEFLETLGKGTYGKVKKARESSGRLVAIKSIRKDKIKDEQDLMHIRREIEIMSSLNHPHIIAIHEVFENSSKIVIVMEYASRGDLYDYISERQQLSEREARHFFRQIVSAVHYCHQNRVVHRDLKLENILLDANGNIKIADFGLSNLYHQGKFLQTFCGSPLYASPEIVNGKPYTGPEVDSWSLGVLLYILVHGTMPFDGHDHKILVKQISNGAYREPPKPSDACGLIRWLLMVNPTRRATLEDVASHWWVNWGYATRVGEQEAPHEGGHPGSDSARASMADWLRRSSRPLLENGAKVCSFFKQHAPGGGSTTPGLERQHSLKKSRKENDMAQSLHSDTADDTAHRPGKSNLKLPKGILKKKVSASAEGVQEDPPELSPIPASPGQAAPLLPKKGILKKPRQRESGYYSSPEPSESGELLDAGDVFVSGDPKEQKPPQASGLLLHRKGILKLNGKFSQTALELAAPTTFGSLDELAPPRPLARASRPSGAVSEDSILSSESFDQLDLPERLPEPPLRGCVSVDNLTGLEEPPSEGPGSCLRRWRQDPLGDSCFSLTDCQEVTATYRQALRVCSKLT

Structure (SMILES): CN(C)S(=O)(=O)c1ccc2c(c1)/C(=C/c1cc3c([nH]1)CCCC3)C(=O)N2
- residual activity (SIK2 (human)): 86.4%
- residual activity (ADRBK2 (human)): 97%
- residual activity (PHKG2 (human)): 78.8%
- residual activity (TLK2 (human)): 102%
- residual activity (DYRK3 (human)): 99.1%
- residual activity (TNK2 (human)): 12.6%
- residual activity (EPHA6 (human)): 61.9%
- residual activity (CHEK1 (human)): 76.3%
- residual activity (CDK4 CCND1 (human)): 107%
- residual activity (DSTYK (human)): 96%
- residual activity [1]: 78.1%
- residual activity (ALK (human)): 43.6%
- residual activity (DCLK2 (human)): 72%
- residual activity (GSG2 (human)): 116%
- residual activity (MARK1 (human)): 54.6%
- residual activity (PBK (human)): 99.7%
- residual activity (CAMK2D (human)): 73.2%
- residual activity [2]: 108%
- residual activity (IRAK1 (human)): 5.59%
- residual activity (WNK2 (human)): 101%
- residual activity (AKT2 (human)): 105%
- residual activity (STK4 (human)): 13.1%
- residual activity (FLT3 (human)): 10.2%
- residual activity (WEE1 (human)): 94.5%
- residual activity (DAPK1 (human)): 102%
- residual activity (CDK4 CCND3 (human)): 99.1%
- residual activity (PDGFRA (human)): 93.7%
- residual activity (ROCK1 (human)): 95.2%
- residual activity (STK38 (human)): 94.6%
- residual activity (CDK7 CCNH MNAT1 (human)): 76.4%
- residual activity (BRSK2 (human)): 48.7%
- residual activity (NLK (human)): 99.7%
- residual activity (MATK (human)): 104%
- residual activity (MYO3B (human)): 98.9%
- residual activity (NUAK2 (human)): 95.1%
- residual activity (SRPK2 (human)): 50.3%
- residual activity (MAPK1 (human)): 101%
- residual activity (RPS6KA3 KD1 KD2 (human)): 70.1%
- residual activity (ULK3 (human)): 26.3%
- residual activity (OXSR1 (human)): 89.1%
- residual activity (NEK3 (human)): 98.2%
- residual activity (TTK (human)): 89.7%

Structure (SMILES): Cc1nc(-c2ccccc2)c(-c2ccncc2)o1
- residual activity (SIK2 (human)): 86.2%
- residual activity (ADRBK2 (human)): 101%
- residual activity (PHKG2 (human)): 97.6%
- residual activity (TLK2 (human)): 110%
- residual activity (DYRK3 (human)): 105%
- residual activity (TNK2 (human)): 97.7%
- residual activity (EPHA6 (human)): 95.9%
- residual activity (CHEK1 (human)): 106%
- residual activity (CDK4 CCND1 (human)): 114%
- residual activity (DSTYK (human)): 91%
- residual activity [1]: 108%
- residual activity (ALK (human)): 108%
- residual activity (DCLK2 (human)): 97%
- residual activity (GSG2 (human)): 87.6%
- residual activity (MARK1 (human)): 92.5%
- residual activity (PBK (human)): 110%
- residual activity (CAMK2D (human)): 94.2%
- residual activity [2]: 123%
- residual activity (IRAK1 (human)): 124%
- residual activity (WNK2 (human)): 101%
- residual activity (AKT2 (human)): 96.7%
- residual activity (STK4 (human)): 104%
- residual activity (FLT3 (human)): 95.2%
- residual activity (WEE1 (human)): 91.9%
- residual activity (DAPK1 (human)): 124%
- residual activity (CDK4 CCND3 (human)): 107%
- residual activity (PDGFRA (human)): 96.3%
- residual activity (ROCK1 (human)): 99.8%
- residual activity (STK38 (human)): 97.3%
- residual activity (CDK7 CCNH MNAT1 (human)): 109%
- residual activity (BRSK2 (human)): 95%
- residual activity (NLK (human)): 79.4%
- residual activity (MATK (human)): 90.3%
- residual activity (MYO3B (human)): 108%
- residual activity (NUAK2 (human)): 128%
- residual activity (SRPK2 (human)): 92.3%
- residual activity (MAPK1 (human)): 90.3%
- residual activity (RPS6KA3 KD1 KD2 (human)): 103%
- residual activity (ULK3 (human)): 94.3%
- residual activity (OXSR1 (human)): 102%
- residual activity (NEK3 (human)): 93.7%
- residual activity (TTK (human)): 100%

Structure (SMILES): O=C1c2ccccc2-c2nc3nnnn3nc21
- residual activity (SIK2 (human)): 106%
- residual activity (ADRBK2 (human)): 106%
- residual activity (PHKG2 (human)): 96.1%
- residual activity (TLK2 (human)): 100%
- residual activity (DYRK3 (human)): 88.6%
- residual activity (TNK2 (human)): 44.9%
- residual activity (EPHA6 (human)): 106%
- residual activity (CHEK1 (human)): 112%
- residual activity (CDK4 CCND1 (human)): 59.9%
- residual activity (DSTYK (human)): 81.5%
- residual activity [1]: 5.79%
- residual activity (ALK (human)): 83.5%
- residual activity (DCLK2 (human)): 86.5%
- residual activity (GSG2 (human)): 79.2%
- residual activity (MARK1 (human)): 98.2%
- residual activity (PBK (human)): 64.5%
- residual activity (CAMK2D (human)): 93%
- residual activity [2]: 79.3%
- residual activity (IRAK1 (human)): 77.6%
- residual activity (WNK2 (human)): 143%
- residual activity (AKT2 (human)): 55.8%
- residual activity (STK4 (human)): 87.8%
- residual activity (FLT3 (human)): 100%
- residual activity (WEE1 (human)): 70.9%
- residual activity (DAPK1 (human)): 92.2%
- residual activity (CDK4 CCND3 (human)): 68.1%
- residual activity (PDGFRA (human)): 44.1%
- residual activity (ROCK1 (human)): 94.5%
- residual activity (STK38 (human)): 46.6%
- residual activity (CDK7 CCNH MNAT1 (human)): 94.1%
- residual activity (BRSK2 (human)): 66.7%
- residual activity (NLK (human)): 98.2%
- residual activity (MATK (human)): 99.7%
- residual activity (MYO3B (human)): 88.4%
- residual activity (NUAK2 (human)): 92.5%
- residual activity (SRPK2 (human)): 95.8%
- residual activity (MAPK1 (human)): 87.5%
- residual activity (RPS6KA3 KD1 KD2 (human)): 75.1%
- residual activity (ULK3 (human)): 103%
- residual activity (OXSR1 (human)): 83%
- residual activity (NEK3 (human)): 111%
- residual activity (TTK (human)): 125%

Structure (SMILES): c1ccc2c(-c3ccncc3)c[nH]c2c1
- residual activity (SIK2 (human)): 90.5%
- residual activity (ADRBK2 (human)): 95.4%
- residual activity (PHKG2 (human)): 101%
- residual activity (TLK2 (human)): 95.8%
- residual activity (DYRK3 (human)): 101%
- residual activity (TNK2 (human)): 96.1%
- residual activity (EPHA6 (human)): 104%
- residual activity (CHEK1 (human)): 104%
- residual activity (CDK4 CCND1 (human)): 112%
- residual activity (DSTYK (human)): 95.9%
- residual activity [1]: 119%
- residual activity (ALK (human)): 106%
- residual activity (DCLK2 (human)): 98.1%
- residual activity (GSG2 (human)): 62.3%
- residual activity (MARK1 (human)): 94.5%
- residual activity (PBK (human)): 97.1%
- residual activity (CAMK2D (human)): 103%
- residual activity [2]: 75.5%
- residual activity (IRAK1 (human)): 127%
- residual activity (WNK2 (human)): 96.9%
- residual activity (AKT2 (human)): 96.4%
- residual activity (STK4 (human)): 103%
- residual activity (FLT3 (human)): 91.5%
- residual activity (WEE1 (human)): 89.3%
- residual activity (DAPK1 (human)): 97.7%
- residual activity (CDK4 CCND3 (human)): 102%
- residual activity (PDGFRA (human)): 95%
- residual activity (ROCK1 (human)): 84.2%
- residual activity (STK38 (human)): 109%
- residual activity (CDK7 CCNH MNAT1 (human)): 97%
- residual activity (BRSK2 (human)): 98.6%
- residual activity (NLK (human)): 95.1%
- residual activity (MATK (human)): 93.9%
- residual activity (MYO3B (human)): 96.4%
- residual activity (NUAK2 (human)): 136%
- residual activity (SRPK2 (human)): 103%
- residual activity (MAPK1 (human)): 100%
- residual activity (RPS6KA3 KD1 KD2 (human)): 97.4%
- residual activity (ULK3 (human)): 83%
- residual activity (OXSR1 (human)): 97.2%
- residual activity (NEK3 (human)): 91.6%
- residual activity (TTK (human)): 112%
